Read-outs that look alike come from different tables or passages of the source.
Columns and labels:
[1] = target: T1, PrbP/RpoB (two-hybrid, PrbP with RpoB 21-150) (Candidatus Liberibacter asiaticus, UniProt A0ABM5NE52); settings: E. coli TOP10, 240 min, 37 °C, inhibition of PrbP/RpoB interaction, indirect reporter
T1 construct: gene WSI_01420

PrbP (CLIBASIA_01510) = target: T2, PrbP (CLIBASIA_01510) (Candidatus Liberibacter asiaticus, UniProt A0ABM5NE52); settings: 2.5 µM PrbP, 1 ng biotin-labelled rplK promoter probe, 10 mM HEPES pH 7.5, 150 mM NaCl, 37 °C
T2 construct: gene WSI_01420

For `CN(C)Cc1c[nH]c2ccccc12` [Gramine], the “β-galactosidase activity^d (% decrease)” value ([1]; 40 µM compound) was 15.3 ± 0.3%.

For `Cc1ncc([N+](=O)[O-])n1CCO` [Metronidazole], the “β-galactosidase activity^d (% decrease)” value ([1]; 50 µM compound) was 53.7 ± 10%.

In the case of `Cc1c(Cl)cccc1Nc1ccccc1C(=O)O` [Tolfenamic acid], the “β-galactosidase activity^d (% decrease)” value ([1]; 25 µM compound) is reported as 17.5 ± 5.3% and the complete disruption (PrbP (CLIBASIA_01510)) is reported as 350 µM.
